Where two headings read alike, the source gives them in different places.
Assays:
[1] = tested on: DSI at CA1 pyramidal neuron synapses; test: depolarization-induced suppression of inhibition (DSI) in hippocampal slices; details: bath application 30 min
Protocol: DSI was evaluated at CA1 pyramidal neuron synapses in hippocampal slices. DSI was induced in vehicle-treated hippocampal slices by applying a brief depolarization while evoking […] through stimulation of synaptic inhibitory inputs (FIG. 7C). Bath application of compound 14 (10 μM) and compound 17 (1 μM), but not compound 22 (10 μM), for 30 min before starting electrophysiological recordings blocked hippocampal DSI (FIGS. 7C and D).

[2] = tested on: brain 2-AG and other DAGL-regulated lipids; test: brain lipid profiles of treated mice by LC-MS; assay type: in vivo, mouse; details: for brain 2-AG levels / brain AA / brain AEA / brain C18:1/C20:4 DAG / brain PGD2 / brain PGE2 / brain SAG: 50 mg/kg i.p., 4 hr post-dosing
Protocol: Brain lipid profiles of mice treated with compounds 14, 17 and control compound 22.
Mice were treated with 50 mg/kg compound (i.p.), followed by lipid profiling using LC-MS at a 4 hr post-dosing. […] This depletion of brain 2-AG in compound 14 and 17-treated mice was dose-dependent (data not shown) and was observed within 2 h after injection. […] The changes in each lipid species were dose-dependent and were absent in compound 22 treated mice (FIGS. 6C, E, G, I, and K).

DAGLβ [3] = biological target: T1, DAGLβ (Mus musculus (Mouse), UniProt Q91WC9); test: in vivo inhibition, brain tissue analyzed by ABPP; details: mice, intraperitoneal 3-50 mg/kg, 4 hr
T1 sequence (Q91WC9 whole entry): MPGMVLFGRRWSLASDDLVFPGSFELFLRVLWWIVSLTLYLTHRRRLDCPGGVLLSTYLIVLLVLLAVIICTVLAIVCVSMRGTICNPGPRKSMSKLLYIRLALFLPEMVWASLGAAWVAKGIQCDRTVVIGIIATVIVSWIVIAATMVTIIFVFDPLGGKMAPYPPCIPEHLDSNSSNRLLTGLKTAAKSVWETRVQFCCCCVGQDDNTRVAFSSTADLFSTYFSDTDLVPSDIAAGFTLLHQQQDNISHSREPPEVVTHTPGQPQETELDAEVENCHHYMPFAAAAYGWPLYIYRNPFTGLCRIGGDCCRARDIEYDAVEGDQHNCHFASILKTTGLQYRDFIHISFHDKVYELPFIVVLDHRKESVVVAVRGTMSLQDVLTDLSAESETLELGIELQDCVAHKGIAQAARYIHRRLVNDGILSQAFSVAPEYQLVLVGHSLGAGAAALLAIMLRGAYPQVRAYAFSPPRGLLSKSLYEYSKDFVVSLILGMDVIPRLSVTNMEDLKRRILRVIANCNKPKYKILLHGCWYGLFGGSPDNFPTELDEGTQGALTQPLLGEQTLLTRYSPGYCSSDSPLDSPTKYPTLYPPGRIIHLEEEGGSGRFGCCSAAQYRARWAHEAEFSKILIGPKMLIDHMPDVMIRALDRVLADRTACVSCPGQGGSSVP
Protocol: (§1) Mice were administered DAGL test compounds and the activity and selectivity of compounds 14 and 17 in vivo was assessed.
(§2) Compound 14, 17 or vehicle was administered intraperitoneally to male C57BL/6 mice across a dose range of 3-50 mg/kg. After 4 hr, the mice were sacrificed and brain tissue analyzed by ABPP, generally as described in Example 16, with compound probe 58, HT-01 probe, and FP-Rh probe.

ABHD6 [4] = biological target: T2, ABHD6 (Mus musculus (Mouse), UniProt Q8R2Y0); test: in vivo inhibition, brain tissue analyzed by ABPP; details: mice, intraperitoneal 3-50 mg/kg, 4 hr
T2 sequence (Q8R2Y0 whole entry): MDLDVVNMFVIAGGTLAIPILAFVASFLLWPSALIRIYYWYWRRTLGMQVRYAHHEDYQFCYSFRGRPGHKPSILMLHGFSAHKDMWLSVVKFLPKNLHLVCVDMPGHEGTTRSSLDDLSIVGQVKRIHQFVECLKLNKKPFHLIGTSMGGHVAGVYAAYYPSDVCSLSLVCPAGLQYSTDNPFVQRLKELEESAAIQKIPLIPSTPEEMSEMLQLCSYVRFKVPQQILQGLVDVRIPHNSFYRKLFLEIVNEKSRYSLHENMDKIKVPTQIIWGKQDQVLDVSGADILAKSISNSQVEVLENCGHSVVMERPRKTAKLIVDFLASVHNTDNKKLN
Protocol: as §1, §2

DAGLα [5] = biological target: T3, DAGLα (Mus musculus (Mouse), UniProt Q6WQJ1); test: in vivo inhibition, brain tissue analyzed by ABPP; details: male C57BL/6 mice, intraperitoneal, 4 hr; for ED50: mouse, ip
T3 sequence (Q6WQJ1 whole entry): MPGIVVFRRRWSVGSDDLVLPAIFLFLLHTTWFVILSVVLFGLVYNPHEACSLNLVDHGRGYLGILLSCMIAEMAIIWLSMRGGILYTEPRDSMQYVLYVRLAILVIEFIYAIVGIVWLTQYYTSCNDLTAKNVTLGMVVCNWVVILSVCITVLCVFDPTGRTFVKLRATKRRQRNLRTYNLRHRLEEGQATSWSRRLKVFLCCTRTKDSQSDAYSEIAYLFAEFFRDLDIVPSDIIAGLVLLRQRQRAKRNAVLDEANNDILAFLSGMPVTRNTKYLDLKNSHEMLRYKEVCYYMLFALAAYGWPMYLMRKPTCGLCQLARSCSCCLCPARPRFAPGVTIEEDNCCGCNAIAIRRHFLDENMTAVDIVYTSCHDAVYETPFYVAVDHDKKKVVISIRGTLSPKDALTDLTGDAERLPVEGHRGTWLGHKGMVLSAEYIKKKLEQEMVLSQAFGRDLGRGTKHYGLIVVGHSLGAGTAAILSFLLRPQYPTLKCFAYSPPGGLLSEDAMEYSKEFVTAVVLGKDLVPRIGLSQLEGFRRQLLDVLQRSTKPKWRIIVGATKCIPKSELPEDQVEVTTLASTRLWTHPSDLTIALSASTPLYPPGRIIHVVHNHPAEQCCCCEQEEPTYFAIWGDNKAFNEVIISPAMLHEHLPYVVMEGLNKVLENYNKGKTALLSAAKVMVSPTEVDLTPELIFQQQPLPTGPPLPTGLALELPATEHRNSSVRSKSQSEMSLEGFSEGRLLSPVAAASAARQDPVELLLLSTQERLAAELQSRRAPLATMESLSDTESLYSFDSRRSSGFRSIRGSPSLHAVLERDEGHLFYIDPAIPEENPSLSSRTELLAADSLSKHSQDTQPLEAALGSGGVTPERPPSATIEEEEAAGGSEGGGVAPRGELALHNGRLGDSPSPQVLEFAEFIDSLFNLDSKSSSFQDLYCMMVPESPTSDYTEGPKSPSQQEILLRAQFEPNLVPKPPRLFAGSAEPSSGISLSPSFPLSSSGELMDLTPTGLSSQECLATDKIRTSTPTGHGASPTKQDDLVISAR
Protocol: as §1, §2

DAGLβ [6] = biological target: T1, DAGLβ; test: in vivo ABPP coupled to quantitative mass spectrometry (FP-biotin, ReDiMe); details: brain proteomes of treated mice
Protocol: (§3) The extent of these target profiles were confirmed by performing ABPP coupled to high-resolution, quantitative mass spectrometry (MS). Briefly, brain proteomes from compound and vehicle-treated mice were incubated with the serine hydrolase directed activity-based probe FP-biotin, and probe-labeled enzymes were enriched by streptavidin chromatography, digested on bead with trypsin, and the resulting tryptic peptides modified by reductive dimethylation (ReDiMe) of lysine residues using isotopically heavy and light formaldehyde, respectively. In these experiments, inhibited serine hydrolases are identified as enzymes showing low heavy/light ReDiMe ratios.

ABHD6 [7] = biological target: T2, ABHD6; test: as above; details: brain proteomes of treated mice
Protocol: as §3

CES1C = CES1C (Mus musculus (Mouse), UniProt P23953); test: as above; details: brain proteomes of treated mice
Sequence of CES1C (P23953 19-554): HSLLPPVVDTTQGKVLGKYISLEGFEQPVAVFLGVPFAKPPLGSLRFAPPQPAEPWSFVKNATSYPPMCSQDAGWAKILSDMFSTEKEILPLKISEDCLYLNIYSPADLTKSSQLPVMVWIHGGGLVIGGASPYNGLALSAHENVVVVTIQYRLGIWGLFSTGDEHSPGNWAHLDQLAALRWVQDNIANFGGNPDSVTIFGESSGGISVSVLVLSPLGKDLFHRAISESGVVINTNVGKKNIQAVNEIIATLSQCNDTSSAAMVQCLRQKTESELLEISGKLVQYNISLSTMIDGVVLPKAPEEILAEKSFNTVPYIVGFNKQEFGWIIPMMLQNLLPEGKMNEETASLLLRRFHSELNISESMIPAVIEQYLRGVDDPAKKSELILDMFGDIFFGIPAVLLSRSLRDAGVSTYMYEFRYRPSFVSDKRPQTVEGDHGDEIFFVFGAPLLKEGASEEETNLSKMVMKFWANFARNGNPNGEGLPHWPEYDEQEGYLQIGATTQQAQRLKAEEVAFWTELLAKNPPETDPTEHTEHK
Protocol: as §3

DAGLα [8] = biological target: T3, DAGLα; test: as above; details: brain proteomes of treated mice
Protocol: as §3

[9] = tested on: DSE at parallel fiber to Purkinje cell synapses; test: depolarization-induced suppression of excitation (DSE) in acute cerebellar slices; details: purkinje; bath application to cerebellar slices 30 min before recordings; read-out: half-maximal inhibition of DSE
Description: Various forms of synaptic plasticity are regulated by 2-AG signaling, included depolarization-induced suppression of excitation (DSE) and inhibition (DSI). DSE was examined at parallel fiber (PF) to Purkinje cell (PC) synapses in acute cerebellar slices. A brief depolarization of PCs induced robust transient DSE at PF-PC synapses in vehicle treated cerebellar slices (FIG. 7A).

serine hydrolases = test: ABPP selectivity against serine hydrolases in mouse brain proteome; assay type: biochemical
Protocol: (§4) Compounds 14 and 17 were evaluated for activity and selectivity against endogenous DAGLs and other serine hydrolases in the mouse brain proteome using a ABPP of mouse brain proteome assay as described in Example 16. These experiments were performed using three different activity-based probesprobe compound 58 (targets DAGLα and DAGLβ), HT-01 (targets DAGLα and DAGLβ), and FP-Rh (broad-spectrum serine hydrolase-directed probe fluorophosphonate-rhodamine).
(§5) Data represent average values±SEM; n=3 per group. […] Compounds 14 and 17 had minimal and negligible binding, respectively, to cannabinoid CB1 (CB1R) and CB2 (CB2R) receptors as measured with a radioligand binding assay (IC50 values>1 μM) (data not shown).
The selectivity of compounds 14 and 17 for additional serine hydrolases was assessed using probe FP-Rh (0.5 μM, 20 min; data not shown). Representative mouse brain serine hydrolases detected by FP-Rh were FAAH, MAGL, and ABHD6.

DAGLs = test: time-course of DAGL inhibition and recovery in mice, competitive ABPP with compound 58 probe; assay type: in vivo, mouse; details: 50 mg/kg
Protocol: Inhibition of DAGL in mice with DAGL compounds 14 and 17 was investigated as a function of time as determined by competitive ABPP using the compound 58 probe (1 μM, 30 min).

DAGLβ [10] = biological target: T1, DAGLβ; test: gel-based ABPP of mouse brain proteome, endogenous DAGLs, probe compound 58 and HT-01; assay type: biochemical
Protocol: as §4, §5

DAGLα [11] = biological target: T3, DAGLα; test: as above; assay type: biochemical
Protocol: as §4, §5

[12] = biological target: cannabinoid CB1 (CB1R) receptor (Homo sapiens (Human), UniProt P21554); test: radioligand binding assay
Sequence of cannabinoid CB1 (CB1R) receptor (P21554 whole entry): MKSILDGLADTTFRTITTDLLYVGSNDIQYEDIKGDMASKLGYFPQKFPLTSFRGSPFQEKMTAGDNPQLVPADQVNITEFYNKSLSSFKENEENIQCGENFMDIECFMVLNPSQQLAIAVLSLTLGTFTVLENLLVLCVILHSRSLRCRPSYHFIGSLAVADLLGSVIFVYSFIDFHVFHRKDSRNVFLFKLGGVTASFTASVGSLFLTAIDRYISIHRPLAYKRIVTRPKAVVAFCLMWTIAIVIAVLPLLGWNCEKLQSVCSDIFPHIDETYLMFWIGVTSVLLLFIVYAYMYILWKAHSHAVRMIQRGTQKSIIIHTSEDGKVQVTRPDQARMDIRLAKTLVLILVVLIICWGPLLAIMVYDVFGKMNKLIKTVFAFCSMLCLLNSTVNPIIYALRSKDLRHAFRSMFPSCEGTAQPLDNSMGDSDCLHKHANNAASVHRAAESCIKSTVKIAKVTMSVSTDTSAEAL
Protocol: as §5

[13] = biological target: cannabinoid CB2 (CB2R) receptor (Homo sapiens (Human), UniProt P34972); test: radioligand binding assay
Sequence of cannabinoid CB2 (CB2R) receptor (P34972 whole entry): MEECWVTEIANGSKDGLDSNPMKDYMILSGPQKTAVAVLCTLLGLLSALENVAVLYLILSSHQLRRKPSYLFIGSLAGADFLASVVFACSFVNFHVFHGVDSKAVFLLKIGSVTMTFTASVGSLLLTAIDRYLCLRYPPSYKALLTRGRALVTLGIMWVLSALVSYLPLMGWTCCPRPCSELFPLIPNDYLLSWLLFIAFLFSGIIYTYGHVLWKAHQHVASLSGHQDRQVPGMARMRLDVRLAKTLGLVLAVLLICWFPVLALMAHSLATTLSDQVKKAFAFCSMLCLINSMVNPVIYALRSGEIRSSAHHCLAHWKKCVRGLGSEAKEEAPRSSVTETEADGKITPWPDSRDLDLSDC
Protocol: as §5

C#CCO[C@@H]1CC[C@H](Cc2ccccc2)N(C(=O)n2ncc(C(O)(c3ccc(F)cc3)c3ccc(F)cc3)n2)C1 [Compound 14, ((2R,5R)-2-Benzyl-5-(prop-2-ynyloxy)piperidin-1-yl)(4-(bis(4-fluorophenyl)(hydroxy)methyl)-2H-1,2,3-triazol-2-yl)methanone]
effect on hippocampal DSI ([1]; 10 μM): blocked
time after injection at which depletion of brain 2-AG was observed [2]: ≤ 2 h
brain 2-AG levels [2]: reduced
brain AA [2]: reductions
brain AEA [2]: reductions
brain C18:1/C20:4 DAG [2]: elevations
brain PGD2 [2]: reductions
brain PGE2 [2]: reductions
brain SAG [2]: elevations
inhibition of DAGLβ in vivo (DAGLβ [3]): inhibited
inhibition of ABHD6 in vivo (ABHD6 [4]): inhibited
dose with full inhibition of DAGLα (DAGLα [5]): 30 to 50 mg/kg
ED50 (DAGLα [5]): 5 to 10 mg/kg
inhibition of DAGLβ by quantitative MS (DAGLβ [6]): strongly
heavy/light ReDiMe ratio, ABHD6 (off-target) (ABHD6 [7]): < 0.5
heavy/light ReDiMe ratio, CES1C (off-target) (CES1C): < 0.5
inhibition of DAGLα by quantitative MS (DAGLα [8]): complete inhibition
IC50 [9]: 1100 nM
selectivity, detectable serine hydrolase off-targets (serine hydrolases): selective for DAGLs, with the only detectable serine hydrolase off-targets being ABHD6 and PLA2G7
duration of sustained inhibition of DAGLs (DAGLs): up to 8 hr
DAGL activity at 24-hr post dosing (DAGLs): partial recovery
IC50 (DAGLβ [10]): 2.3 to 4.8 nM
IC50 (DAGLα [11]): 0.5 to 1.2 nM
IC50 [12]: > 1000 nM
IC50 [13]: > 1000 nM

CC(C)(C)OC(=O)N1CCN(C(=O)n2cc(-c3ccc(OC(F)(F)F)cc3)nn2)C(Cc2ccccc2)C1 (centres unmarked) [Compound 17, tert-Butyl 3-benzyl-4-(4-(4-(trifluoromethoxy)phenyl)-1H-1,2,3-triazole-1-carbonyl)piperazine-1-carboxylate]
effect on hippocampal DSI ([1]; 1 μM): blocked
time after injection at which depletion of brain 2-AG was observed [2]: ≤ 2 h
brain 2-AG levels [2]: reduced
brain AA [2]: reductions
brain AEA [2]: reductions
brain C18:1/C20:4 DAG [2]: elevations
brain PGD2 [2]: reductions
brain PGE2 [2]: reductions
brain SAG [2]: elevations
inhibition of DAGLβ in vivo (DAGLβ [3]): inhibited
inhibition of ABHD6 in vivo (ABHD6 [4]): inhibited
dose with full inhibition of DAGLα (DAGLα [5]): 30 to 50 mg/kg
ED50 (DAGLα [5]): 5 to 10 mg/kg
inhibition of DAGLβ by quantitative MS (DAGLβ [6]): partially
heavy/light ReDiMe ratio, ABHD6 (off-target) (ABHD6 [7]): < 0.5
heavy/light ReDiMe ratio, CES1C (off-target) (CES1C): < 0.5
inhibition of DAGLα by quantitative MS (DAGLα [8]): complete inhibition
IC50 [9]: 180 nM
selectivity, detectable serine hydrolase off-targets (serine hydrolases): selective for DAGLs, with the only detectable serine hydrolase off-targets being ABHD6 and PLA2G7
duration of sustained inhibition of DAGLs (DAGLs): up to 8 hr
DAGL activity at 24-hr post dosing (DAGLs): partial recovery
IC50 (DAGLβ [10]; mouse brain proteome, probes 1 μM, 30 min, read-out: IC50, DAGLβ labeling by compound 58 and HT-01): 2.3 to 4.8 nM
IC50 (DAGLα [11]; mouse brain proteome, probes 1 μM, 30 min, read-out: IC50, DAGLα labeling by compound 58 and HT-01): 0.5 to 1.2 nM
IC50 ([12]; radioligand binding assay, read-out: IC50, CB1R binding): > 1000 nM
IC50 ([13]; radioligand binding assay, read-out: IC50, CB2R binding): > 1000 nM
